Results: patent publication US20110257014A1, “1-(Heteroaryl)pyrazol-4-ylacetic acids, processes for their preparation and their use as herbicides and plant growth regulators” (BAYER CROPSCIENCE AG, priority 2009, published 2011)

Key:
Assay in all cases: Post-emergence herbicidal effect, greenhouse pot test
Format in all cases: in vivo
Settings in all cases: 0.32 kg of active substance per hectare, rated visually after about 3 weeks
Avena fatua = test system: Avena fatua
Method: (§1) Seeds of monocotyledonous and dicotyledonous weed and crop plants are placed in sandy loam in wood-fiber pots, covered with soil and cultivated in a greenhouse under good growth conditions. 2 to 3 weeks after sowing, the test plants are treated at the one-leaf stage. The compounds (I) according to the invention, formulated in the form of wettable powders (WP), are then applied by spraying as aqueous suspension or emulsion at a water application rate of 600 I/ha (converted) with the addition of 0.2% of wetting agent to the green parts of the plants. After the test plants have been kept in the greenhouse under optimum growth conditions for about 3 weeks, the activity of the preparations is rated visually in comparison to untreated controls (herbicidal activity in percent (%): 100% activity=the plants have died, 0% activity=like control plants).

Echinochloa crus galli = test system: Echinochloa crus galli
Method: as §1

Abutilon theophrasti = test system: Abutilon theophrasti
Method: as §1

Alopecurus myosuroides = test system: Alopecurus myosuroides
Method: as §1

Measured: herbicidal activity

COC(=O)Cc1c(C)nn(-c2cncn2C)c1-c1ccc(Cl)cc1 [Compound 5-1107, methyl [5-(4-chlorophenyl)-3-methyl-1-(1-methyl-1H-imidazol-5-yl)-1H-pyrazol-4-yl]acetate]
≥ 80%: all assays above
